# Data reported in US20140364417A1, “METHOD OF TREATING ATRIAL FIBRILLATION” (Gilead Sciences, Inc., priority 2013, published 2014).
# Tests used:
# [1] = tested on: Guinea Pig Isolated Hearts; assay: S-H interval (AV nodal conduction) in guinea pig isolated, Langendorff-perfused paced hearts; conditions: for second-degree AV block (dropped beats): isolated paced hearts, drug alone; for increase in the S-H interval compared to control (no drug): ivabradine 0.1 μM, ranolazine 2 μM, alone or combined, pacing rate of 4 and 5 Hz, FIG. 1
# From the text: To test the combined effects of ranolazine and ivabradine on AV conduction, the following experimental procedures were employed.
# Guinea pigs (Hartley) of either sex weighing 300-350 g were anesthetized by inhalation of isoflurane. The chest of a guinea pig was cut open, and the heart was quickly removed and rinsed in ice-cold modified Krebs-Henseleit (K-H) solution. The contents of the modified K-H solution were (in mM) 117.9 NaCl, 4.8 KCl, 2.5 CaCl2, 1.18 MgSO4, 1.2 KH2PO4, 0.5 Na2 EDTA, 0.14 ascorbic acid, 5.5 dextrose, 2.0 pyruvic acid (sodium salt), and 25 NaHCO3. The K-H solution was continuously gassed with 95% O2-5% CO2, and the pH was adjusted to a value of 7.4.
# To perfuse the heart by the Langendorff method, the transected aorta was slid onto a glass cannula and secured by a ligature. Retrograde perfusion of the aorta was initiated immediately at a constant flow of 10 mL/min with modified K-H solution warmed to 37.0±0.5° C. A side port in the cannula was used to connect the perfusion line to a pressure transducer (AD Instruments, Australia) for measurement of coronary perfusion pressure (CPP). To facilitate the exit of fluid from the left ventricle, the leaflets of the mitral valve were trimmed with fine spring-handled scissors. Hearts were allowed to beat spontaneously in experiments to measure heart rate, or paced at a constant rate using external electrodes, in experiments to measure AV conduction time. After completion of dissection and instrumentation, stimulus-to-H is bundle (S-H) interval was monitored continuously. Each heart was allowed to equilibrate for 20-40 min before the administration of drug. Experimental interventions were always preceded and followed by control measurements.
# To facilitate the recording of a drug effect on the S-H interval, parts of the left and right atrial tissues, including the region of the sinoatrial node, were removed, both to decrease the spontaneous heart rate and to expose the atrial septum for electrode placement. A bipolar Teflon-coated electrode was placed in the wall of the intra-atrial septum to pace the heart. […] Stimuli were provided by a stimulation generator (model 48, Grass Instruments, W. Warwick, R I) and delivered to the heart through a stimulus isolation unit as square wave pulses of 3 msec duration and at least twice the threshold intensity.
# A His bundle electrogram was recorded using a Teflon-coated unipolar electrode placed in the right side of the interatrial septum adjacent to the AV junction. […]
# Ivabradine (Iva), ranolazine (Ran) or the combination thereof was infused to the hearts. Each concentration of Iva was infused for about 20 min to allow a steady-state response to be recorded, whereas each concentration of ranolazine was infused for 10 min to allow a steady-state response to be recorded. […]
# male Yorkshire pigs = assay: Hemodynamic changes in pigs: sinus rate, mean arterial pressure, left ventricular dP/dt; format: in vivo; conditions: for sinus rate after drug: at the time of electrical testing, ivabradine 0.25 mg/kg, before drug 111±4.0 (ivabradine) and 105±5.7 (ranolazine, combination)
# Description: Data were gathered from male Yorkshire pigs (n=16) weighing 35±2 kg (mean±SEM). The animals were preanesthetized with telazol (4.7 mg/kg, intramuscularly) and then anesthetized with alpha-chloralose (100 mg/kg, i.v., bolus followed by 40 mg/kg/h, i.v., continuous infusion). The animals were intubated and ventilation was maintained between 10-16 breaths/min with volumes between 400-500 mL. Vital signs including core body temperature, heart rate, and oxygen saturation were continuously monitored.
# The right and left femoral veins were cannulated with 7Fr introducer sheaths using the Seldinger technique to insert catheters in the right atrial (RA) appendage for pacing and for positioning the intrapericardial catheter. Arterial blood pressure was continuously monitored from a femoral arterial sheath, and intravenous fluids were administered through the ear vein. The electrocardiogram (ECG) was recorded with a Prucka Cardiolab workstation (GE Medical Systems, Milwaukee, Wis.) from atrial and ventricular sites.
# Ranolazine was given as a 2.4 mg/kg, i.v., bolus followed by continuous infusion of 0.135 mg/kg/min, i.v.
# A nonsteerable, quadripolar electrode catheter (Bard Electrophysiology, Lowell Mass.) was placed in the right atrium (RA) via the femoral vein and a second quadripolar electrode catheter in the right ventricle via the jugular vein. A bipolar electrode was placed in the non-coronary cusp of the aorta through the left carotid artery to record the His bundle electrogram. A pigtail catheter was inserted in the left ventricle via the left femoral artery to record and calculate contractility [left ventricular dP/dt]. Transatrial access was employed to deliver acetylcholine (ACh) into the pericardial space. Specifically, a small puncture was made in the RA appendage with the stiff end of a coronary angioplasty guidewire (0.014-inch Wizdom guidewire, Cordis, Miami, Fla., USA) placed within the lumen of a soft infusion catheter (0.038-inch SOS straight-tip, open-ended angiographic guidewire, Bard Electrophysiology). This wire-within-wire system was advanced as a unit into an 8Fr multipurpose guide catheter (MP2, Boston Scientific, Boston Mass.) previously positioned in the RA appendage via a femoral vein under fluoroscopic guidance and into the pericardial space. The infusion catheter was left in the pericardial space for delivery of ACh and the inner guidewire was removed. Conformation of the infusion catheter on fluoroscopy to the curvature of the heart verified its location within the pericardial space. All of the pericardial fluid was then aspirated with the infusion catheter. Intrapericardial access is associated with a hematocrit <2%, indicating minimum trauma from the atrial puncture (Kumar et al., J Cardiovasc Electrophysiol 2009; 20:796-802). The presence of acetylcholinesterase can rapidly degrade ACh and prevent a sustained response to this neurotransmitter.
# The statistical tests were carried out with a SAS statistical package (SAS Institute, Cary, N.C.). Effects on electrophysiologic properties were determined by repeated measures analysis of variance (ANOVA) followed by post-hoc t-tests with Bonferroni correction for multiple comparisons. For mean arterial pressure, heart rate, and dominant frequency during atrial fibrillation, we used paired t-tests to compare effects of agents to baseline. All data are reported as mean±SEM, with P<0.05 considered significant.
# [2] = Reffelmann and Kloner 2010; Verrier et al 2013; cited from earlier work
# [3] = tested on: atrial and ventricular myocardium; conditions: cited from earlier work
SMILES,second-degree AV block (dropped beats) [1],increase in the S-H interval compared to control (no drug) [1],"left ventricular (LV) dP/dt after drug (male Yorkshire pigs; at 30 min after drug, pacing at 180 beats/min, baseline 2156±647.4 (ivabradine) and 1864±109.1 (ranolazine, combination))",sinus rate after drug (male Yorkshire pigs),effect on mean arterial pressure during sinus rhythm (male Yorkshire pigs; drugs given separately),effect on left ventricular (LV) dP/dt (contractility) (male Yorkshire pigs; pacing at 180 beats/min),steady-state plasma therapeutic concentration [2],"effect on left ventricular (LV) dP/dt (contractility) (male Yorkshire pigs; pig, in vivo)","effect on mean arterial pressure during sinus rhythm (male Yorkshire pigs; pig, in vivo)",dominant frequency of AF ([3]; Kumar et al. 2009),APD in ventricular myocardium ([3]; clinically relevant concentrations (5 and 10 μM)),duration of the action potential (APD90) in atria ([3]; published studies)
"COc1cc2c(cc1OC)CC(=O)N(CCCN(C)C[C@H]1Cc3cc(OC)c(OC)cc31)CC2 [ivabradine, 3-{3-[{[(7S)-3,4-dimethoxybicyclo[4.2.0]octa-1,3,5-trien-7-yl]methyll}-(methyl)amino]propyl}-7,8-dimethoxy-1,3,4,5-tetrahydro-2H-3-benzapenin-2-one]",without causing second-degree AV block,small but significant increase,2342±486.5 mmHg/sec,90±3.3 beats/min,Neither ivabradine nor ranolazine given separately altered,not altered,,,,,,
"COc1ccccc1OCC(O)CN1CCN(CC(=O)Nc2c(C)cccc2C)CC1 (racemic) [ranolazine, (±)-N-(2,6-dimethylphenyl)-4-[2-hydroxy-3-(2-methoxyphenoxy)-propyl]-1-piperazineacetamide]",without causing second-degree AV block,small but significant increase,,96±3.9 beats/min,,,2 to 8 µM,not altered,Neither ivabradine nor ranolazine given separately altered,capable of reducing,minimal or no effect,prolongs
